Measurements taken from ChEMBL document CHEMBL5543137, “Design and Synthesis of Novel Ultralong-Acting Peptides as EDP-EBP Interaction Inhibitors for Pulmonary Fibrosis Treatment” (J Med Chem, 2024).
Active and inactive are the calls of the source. The calls are words filed in the database; no cut-off is given here.

Tests used:
Mus musculus = test: Antifibrotic activity against BLM-induced C57BL/6 mouse pulmonary fibrosis model assessed as improvement in lung condition at 30 mg/kg, po administered for 2 weeks starting from 7 days post BLM induction and measured after 21 days post BLM induction; format: functional, organism-based
[1] = Tmax in Sprague-Dawley rat serum at 600 ug/kg, sc administered as single dose measured upto 10 days by LC-MS/MS method; format: ADME, organism-based; settings: 0.6 mg/kg, dose 600 µg/kg, time < 10 day
[2] = Half-life in Sprague-Dawley rat serum at 600 ug/kg, sc administered as single dose measured upto 10 days by LC-MS/MS method; format: ADME, organism-based; settings: 0.6 mg/kg, dose 600 µg/kg, time < 10 day
[3] = Binding affinity to EBP (unknown origin) by ITC method; design: species or system Homo sapiens

Molecule	Activity (Mus musculus)	Tmax [1] [min]	half-life [2] [min]	Kd [3] [µM]
COC(=O)c1ccc2c(c1)NC(=O)/C2=C(\Nc1ccc(N(C)C(=O)CN2CCN(C)CC2)cc1)c1ccccc1	Active	–	–	–
H-VVGSPSAQDEASPL-NH2	–	4.98	5.88	539
